Legend:
Scierotinia minor = assay: Fungal growth inhibition, treated disc on agar (SCL MIN); type: cell-based; conditions: disc dipped in 500 mg/l, 29° C., read-out: Percent Growth Inhibition, SCL MIN
Fusarium oxysporum = assay: Fungal growth inhibition, treated disc on agar (FUS OXY); type: cell-based; conditions: Fusarium oxysporum, disc dipped in 500 mg/l, 29° C., read-out: Percent Growth Inhibition, FUS OXY
[1] = tested on: Cercosporidium personatum; assay: Fungal germination and growth, treated disc on agar, scored (CER PER); type: cell-based; set-up: key: 100: Complete inhibition of germination and growth.; 80: Nearly complete inhibition but some growth.; 50: Partial inhibition of growth or, early complete inhibition but later growth begins.; 20: Some inhibition of growth, but not significant.; 0: No inhibition of growth; conditions: disc dipped in 500 mg/l, 29° C., numerical score 0-100, spore suspension
Text: Filter paper discs, each 11 mm. in diameter, were dipped in each of the test solutions. The discs were allowed to air dry to drive off the acetone solvent. A number of untreated discs were used as controls. The treated and untreated discs were then placed on agar plates and one of the following fungus species: Septoria nodorum (SEP NOD), Botrytis cinerea (BOT CIN), Fusarium oxysporum (FUS OXY), Pythium ultimum ([…]), Rhizoctonia solani (RHI SOL), Colletotrichum gossypii (COL GOS), and Scierotinia minor (SCL MIN), was added to the center of each disc in the form of a culture plug with the fungus mat in contact with the paper of the test disc. Cercosporidium personatum (CER PER), was added to discs as a spore suspension (20,000 spores/ml) to the disc (two drops of spore suspension per disc), rather than a mycelial culture plug. The plates were then incubated at 29° C. in an oven. In the case of the Cercosporidium personatum (CER PER) fungi, scoring was done on a numerical basis as follows: 100=Complete inhibition of germination and growth. 80=Nearly complete inhibition but some growth. 50=Partial inhibition of growth or, early complete inhibition but later growth begins. 20=Some inhibition of growth, but not significant. 0=No inhibition of growth. The results of all the above tests appear in Table III below under the headings "SEP NOD," "BOT CIN," "FUS OXY," "[…]" "COL GOS" and "CER PER".

Rhizoctonia solani = assay: Fungal growth inhibition, treated disc on agar (RHI SOL); type: cell-based; conditions: Rhizoctonia solani, disc dipped in 500 mg/l, 29° C., read-out: Percent Growth Inhibition, RHI SOL
Helminthosporium sativum = assay: Barley spot blotch, foliar treatment (HEL SAT); type: in vivo; conditions: Helminthosporium, foliar, 216 h, foliar, 1,000 mg/l, read-out: Percent Reduction of Disease, HEL SAT
Description: Compositions containing Compounds Nos. 1-81 were prepared by dissolving 0.24 grams of each of the compounds in 8 ml of acetone or other suitable inert solvent. Each of the resultant solutions was treated with 3 drops of TWEEN 20 (ethoxylated ethylene sorbitan monolaurate, a non-ionic surfactant)(I.C.I.), and water was added to form an emulsion. The degree of dilution with water was dictated by the desired concentration of the compound in the composition. The greater the quantity of water added, the lower the concentration of the compound in the composition, reported in milligrams per liter (mg/l) Ten plants of six day-old Barley (variety "Robust") were planted in each of a plurality of pots. Each pot was then either sprayed with one of the compositions of Example 9, at a concentration of 1,000 mg/l, or left unsprayed. The unsprayed plants were used as controls. An equal number of pots were sprayed and unsprayed. All plants, sprayed and unsprayed, were thereafter inoculated with spores of the blotch fungus Helminthosporium sativum. All inoculated plants were placed in a 99% humidity chamber for 24 hours and then placed in a greenhouse, maintained at a temperature of 21° C., for eight days. […] Percent control was computed and the results are summarized in Table II under the heading "HEL SAT".

Erysiphe cichoracearum = assay: Powdery mildew of cucumber, systemic root uptake (CMS); type: in vivo; conditions: 45 ml of 250 mg/l, 8 days after inoculation
Description: (§1) Compositions containing Compounds Nos. 1-81 were prepared by dissolving 0.24 grams of each of the compounds in 8 ml of acetone or other suitable inert solvent. Each of the resultant solutions was treated with 3 drops of TWEEN 20 (ethoxylated ethylene sorbitan monolaurate, a non-ionic surfactant)(I.C.I.), and water was added to form an emulsion. The degree of dilution with water was dictated by the desired concentration of the compound in the composition. The greater the quantity of water added, the lower the concentration of the compound in the composition, reported in milligrams per liter (mg/l) […] Upon reaching these ages, the plants were either treated with 45 ml of 250 mg/l concentration of the compositions of Example 9 or were left untreated. The untreated plants were used as controls. The 45 ml compositions saturated the soil of the treated pots without significant loss through drainage into the saucers below the pots. Twenty-four hours after the treatment with the compositions, both the barley and cucumber plants in all the pots, those treated and those untreated, were inoculated with powdery mildew fungus. This was accomplished by tapping leaves of previously infected barley and cucumber plants over the treated and untreated pots containing the barley and cucumber plants, respectively, to distribute spores of the fungus over the plants tested. […] Intermediate ratings were assigned depending on the degree of disease. […] The results of the powdery mildew disease control of barley are reported under the heading of "BMS". The results for cucumber mildew control are reported under the heading "CMS".

Botrytis cinerea = assay: Fungal growth inhibition, treated disc on agar (BOT CIN); type: cell-based; conditions: Botrytis cinerea, disc dipped in 500 mg/l, 29° C., read-out: Percent Growth Inhibition, BOT CIN
Erysiphe graminis [2] = assay: Powdery mildew in barley, foliar application (ERY GRA); type: in vivo; conditions: Blumeria graminis, foliar, 192 h, foliar, 1,000 mg/l, 8 days after inoculation, read-out: Percent Reduction of Disease, ERY GRA
Description: Compositions containing Compounds Nos. 1-81 were prepared by dissolving 0.24 grams of each of the compounds in 8 ml of acetone or other suitable inert solvent. Each of the resultant solutions was treated with 3 drops of TWEEN 20 (ethoxylated ethylene sorbitan monolaurate, a non-ionic surfactant)(I.C.I.), and water was added to form an emulsion. The degree of dilution with water was dictated by the desired concentration of the compound in the composition. The greater the quantity of water added, the lower the concentration of the compound in the composition, reported in milligrams per liter (mg/l) Ten plants of "Robust" variety barley were planted in each of a plurality of pots. Each pot was then either sprayed with one of the compositions of Example 9, at a composition concentration of 1,000 mg/l, or left unsprayed. For each pot sprayed, one pot was left unsprayed as a control. After the leaves of the sprayed pots were dried, the sprayed pots and the unsprayed control pots were placed in a greenhouse maintained at 21° C. All the pots were then inoculated with barley powdery mildew fungus, Erysiphe graminis. This inoculation was accomplished by distributing spores of the fungus over the leaves of the plants to be tested from plants which had previously been infected with the mildew disease. […] Again, percent control was computed by comparing the treatment scores with the scores of the untreated controls. The results are summarized in Table II under the heading "ERY GRA".

Erysiphe graminis [3] = assay: Powdery mildew of barley, systemic root uptake (BMS); type: in vivo; conditions: 45 ml of 250 mg/l, 8 days after inoculation
Description: as §1

Compound	inhibition at 500 µg/mL (Scierotinia minor)	inhibition at 500 µg/mL (Fusarium oxysporum)	CER PER inhibition score [1]	inhibition at 500 µg/mL (Rhizoctonia solani)	pest or weed control at 1000 µg/mL (Helminthosporium sativum)	Percent Reduction of Disease, CMS (Erysiphe cichoracearum)	inhibition at 500 µg/mL (Botrytis cinerea)	pest or weed control at 1000 µg/mL (Erysiphe graminis [2])	Percent Reduction of Disease, BMS (Erysiphe graminis [3])
CCCCC(C#N)(CCc1ccc(F)cc1)c1cccnc1 (stereo not drawn) [Compound 11]	98%	10%	0	98%	100%	39%	100%	100%	74%
CCCC(C#N)(CCCc1ccc(Cl)cc1)c1cccnc1 (stereo not drawn) [Compound 12]	92%	80%	100	98%	100%	40%	98%	100%	40%
CCCCC(C#N)(CCCc1ccc(Cl)cc1)c1cccnc1 (stereo not drawn) [Compound 13]	94%	60%	0	100%	100%	0%	98%	100%	40%
CCCC(C#N)(Cc1ccc(C(C)(C)C)cc1)c1cccnc1 (stereo not drawn) [Compound 14]	5%	25%	0	5%	60%	84%	15%	100%	0%
CCCC(C#N)(CCCc1ccccc1Cl)c1cccnc1 (stereo not drawn) [Compound 15, 2-chloro-α-propyl-(3-pyridinyl)benzene pentanenitrile]	100%	95%	100	98%	100%	96%	30%	100%	0%
CCCCCCC(C#N)(Cc1ccc(C(C)(C)C)cc1)c1cccnc1 (stereo not drawn) [Compound 16]	5%	5%	0	25%	85%	0%	20%	85%	0%

From patent publication US5945436A, “Pyridylmethyl nitriles, amides and thioamides useful as fungicides” (Uniroyal Chemical Company, Inc., priority 1997, dated 1999)
